System: 885724-159-R-J1-PDC KRAS PDC multicell spheroid viability
Experiment: Anticancer human tumor 885724-159-R-J1-PDC patient-derived pancreatic adenocarcinoma cell line growth inhibition [KRAS2]
Conditions: for IC50: curve of first compound; for viability, T/C: stronger effect = lower value
Method in brief: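 KRAS-mutant tumor cells were grown as spheroids with HUVEC endothelial cells and human MSCs as stroma. Targeted agents were tested alone and with KRAS pathway inhibitors. Doses started at or near clinical Cmax, or 10 microM, descending half-log.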

[1] = second compound 0.1 µM, first compound 0.0316 µM
[2] = second compound 0.1 µM, first compound 0.1 µM
[3] = second compound 0.1 µM, first compound 0.316 µM
[4] = second compound 0.1 µM, first compound 1 µM
[5] = second compound 0.1 µM, first compound 3.16 µM
[6] = second compound 0.1 µM, first compound 10 µM
[7] = second compound 0.316 µM, first compound 0.0316 µM
[8] = second compound 0.316 µM, first compound 0.1 µM
[9] = second compound 0.316 µM, first compound 0.316 µM
[10] = second compound 0.316 µM, first compound 1 µM
[11] = second compound 0.316 µM, first compound 3.16 µM
[12] = second compound 0.316 µM, first compound 10 µM
[13] = second compound 1 µM, first compound 0.0316 µM
[14] = second compound 1 µM, first compound 0.1 µM
[15] = second compound 1 µM, first compound 0.316 µM
[16] = second compound 1 µM, first compound 1 µM
[17] = second compound 1 µM, first compound 3.16 µM
[18] = second compound 1 µM, first compound 10 µM
[19] = second compound 3.16 µM, first compound 0.0316 µM
[20] = second compound 3.16 µM, first compound 0.1 µM
[21] = second compound 3.16 µM, first compound 0.316 µM
[22] = second compound 3.16 µM, first compound 1 µM
[23] = second compound 3.16 µM, first compound 3.16 µM
[24] = second compound 3.16 µM, first compound 10 µM
[25] = second compound 10 µM, first compound 0.0316 µM
[26] = second compound 10 µM, first compound 0.1 µM
[27] = second compound 10 µM, first compound 0.316 µM
[28] = second compound 10 µM, first compound 1 µM
[29] = second compound 10 µM, first compound 3.16 µM
[30] = second compound 10 µM, first compound 10 µM
[31] = second compound 0.1 µM, first compound 0.00316 µM
[32] = second compound 0.1 µM, first compound 0.01 µM
[33] = second compound 0.316 µM, first compound 0.00316 µM
[34] = second compound 0.316 µM, first compound 0.01 µM
[35] = second compound 1 µM, first compound 0.00316 µM
[36] = second compound 1 µM, first compound 0.01 µM
[37] = second compound 3.16 µM, first compound 0.00316 µM
[38] = second compound 3.16 µM, first compound 0.01 µM
[39] = second compound 10 µM, first compound 0.00316 µM
[40] = second compound 10 µM, first compound 0.01 µM
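Also: spheroids exposed to agents for 7 days before readout.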

SMILES: CC(C)NCC(C(=O)N1CCN(c2ncnc3c2C(C)CC3O)CC1)c1ccc(Cl)cc1 (stereo not given) + C=CC(=O)N1CCN(c2nc(=O)n(-c3c(C)ccnc3C(C)C)c3nc(-c4c(O)cccc4F)c(F)cc23)C(C)C1
- IC50 (second compound 0.1 µM): > 10000 nM
- IC50 (second compound 0.316 µM): > 10000 nM
- IC50 (second compound 1 µM): > 10000 nM
- IC50 (second compound 3.16 µM): 3780 nM
- IC50 (second compound 10 µM): 175 nM
- viability, T/C [1]: 111%
- viability, T/C [2]: 88%
- viability, T/C [3]: 80.3%
- viability, T/C [4]: 77.5%
- viability, T/C [5]: 79.4%
- viability, T/C [6]: 64.9%
- viability, T/C [7]: 103%
- viability, T/C [8]: 93.6%
- viability, T/C [9]: 74.1%
- viability, T/C [10]: 80.5%
- viability, T/C [11]: 77.9%
- viability, T/C [12]: 60.8%
- viability, T/C [13]: 105%
- viability, T/C [14]: 92.9%
- viability, T/C [15]: 83.5%
- viability, T/C [16]: 79.8%
- viability, T/C [17]: 71.8%
- viability, T/C [18]: 50.1%
- viability, T/C [19]: 99.9%
- viability, T/C [20]: 90.2%
- viability, T/C [21]: 77.8%
- viability, T/C [22]: 68.3%
- viability, T/C [23]: 57.9%
- viability, T/C [24]: 31.8%
- viability, T/C [25]: 73.5%
- viability, T/C [26]: 68.8%
- viability, T/C [27]: 30%
- viability, T/C [28]: 11.5%
- viability, T/C [29]: 18.8%
- viability, T/C [30]: 5.87%

SMILES: CCN1CCN(Cc2ccc(Nc3ncc(F)c(-c4cc(F)c5nc(C)n(C(C)C)c5c4)n3)nc2)CC1 + C=CC(=O)N1CCN(c2nc(=O)n(-c3c(C)ccnc3C(C)C)c3nc(-c4c(O)cccc4F)c(F)cc23)C(C)C1
- IC50 (second compound 0.1 µM): > 1000 nM
- IC50 (second compound 0.316 µM): > 1000 nM
- IC50 (second compound 1 µM): > 1000 nM
- IC50 (second compound 3.16 µM): > 1000 nM
- IC50 (second compound 10 µM): > 1000 nM
- viability, T/C [31]: 116%
- viability, T/C [32]: 98.6%
- viability, T/C [1]: 99.3%
- viability, T/C [2]: 92.6%
- viability, T/C [3]: 87.2%
- viability, T/C [4]: 92.6%
- viability, T/C [33]: 114%
- viability, T/C [34]: 104%
- viability, T/C [7]: 102%
- viability, T/C [8]: 95.1%
- viability, T/C [9]: 101%
- viability, T/C [10]: 107%
- viability, T/C [35]: 112%
- viability, T/C [36]: 116%
- viability, T/C [13]: 106%
- viability, T/C [14]: 101%
- viability, T/C [15]: 106%
- viability, T/C [16]: 104%
- viability, T/C [37]: 114%
- viability, T/C [38]: 122%
- viability, T/C [19]: 104%
- viability, T/C [20]: 101%
- viability, T/C [21]: 110%
- viability, T/C [22]: 114%
- viability, T/C [39]: 72.6%
- viability, T/C [40]: 84.2%
- viability, T/C [25]: 84.8%
- viability, T/C [26]: 85%
- viability, T/C [27]: 88.8%
- viability, T/C [28]: 80.2%

SMILES: CCNC(=O)CC1N=C(c2ccc(Cl)cc2)c2cc(OC)ccc2-n2c(C)nnc21 (stereo not given) + C=CC(=O)N1CCN(c2nc(=O)n(-c3c(C)ccnc3C(C)C)c3nc(-c4c(O)cccc4F)c(F)cc23)C(C)C1
- IC50 (second compound 0.1 µM): > 10000 nM
- IC50 (second compound 0.316 µM): 6680 nM
- IC50 (second compound 1 µM): > 10000 nM
- IC50 (second compound 3.16 µM): 2220 nM
- IC50 (second compound 10 µM): 352 nM
- viability, T/C [1]: 109%
- viability, T/C [2]: 95.6%
- viability, T/C [3]: 86.3%
- viability, T/C [4]: 65.6%
- viability, T/C [5]: 57%
- viability, T/C [6]: 52.7%
- viability, T/C [7]: 105%
- viability, T/C [8]: 94.4%
- viability, T/C [9]: 77.6%
- viability, T/C [10]: 61.3%
- viability, T/C [11]: 55.3%
- viability, T/C [12]: 47.2%
- viability, T/C [13]: 116%
- viability, T/C [14]: 89.6%
- viability, T/C [15]: 66.3%
- viability, T/C [16]: 63.9%
- viability, T/C [17]: 51.1%
- viability, T/C [18]: 51.8%
- viability, T/C [19]: 105%
- viability, T/C [20]: 90.5%
- viability, T/C [21]: 66.3%
- viability, T/C [22]: 51.8%
- viability, T/C [23]: 51.8%
- viability, T/C [24]: 45.9%
- viability, T/C [25]: 78%
- viability, T/C [26]: 66%
- viability, T/C [27]: 48.2%
- viability, T/C [28]: 43.1%
- viability, T/C [29]: 39.2%
- viability, T/C [30]: 33.6%

SMILES: Cn1ncnc1[C@H]1c2n[nH]c(=O)c3cc(F)cc(c23)N[C@@H]1c1ccc(F)cc1 + C=CC(=O)N1CCN(c2nc(=O)n(-c3c(C)ccnc3C(C)C)c3nc(-c4c(O)cccc4F)c(F)cc23)C(C)C1
- IC50 (second compound 0.1 µM): > 100 nM
- IC50 (second compound 0.316 µM): > 100 nM
- IC50 (second compound 1 µM): > 100 nM
- IC50 (second compound 3.16 µM): > 100 nM
- IC50 (second compound 10 µM): > 100 nM
- viability, T/C (second compound 0.1 µM, first compound 0.000316 µM): 105%
- viability, T/C (second compound 0.1 µM, first compound 0.001 µM): 107%
- viability, T/C [31]: 103%
- viability, T/C [32]: 110%
- viability, T/C [1]: 111%
- viability, T/C [2]: 92%
- viability, T/C (second compound 0.316 µM, first compound 0.000316 µM): 118%
- viability, T/C (second compound 0.316 µM, first compound 0.001 µM): 115%
- viability, T/C [33]: 113%
- viability, T/C [34]: 113%
- viability, T/C [7]: 108%
- viability, T/C [8]: 94%
- viability, T/C (second compound 1 µM, first compound 0.000316 µM): 111%
- viability, T/C (second compound 1 µM, first compound 0.001 µM): 106%
- viability, T/C [35]: 117%
- viability, T/C [36]: 107%
- viability, T/C [13]: 104%
- viability, T/C [14]: 96.8%
- viability, T/C (second compound 3.16 µM, first compound 0.000316 µM): 106%
- viability, T/C (second compound 3.16 µM, first compound 0.001 µM): 108%
- viability, T/C [37]: 106%
- viability, T/C [38]: 105%
- viability, T/C [19]: 108%
- viability, T/C [20]: 105%
- viability, T/C (second compound 10 µM, first compound 0.000316 µM): 89.3%
- viability, T/C (second compound 10 µM, first compound 0.001 µM): 97.4%
- viability, T/C [39]: 93%
- viability, T/C [40]: 86%
- viability, T/C [25]: 82.2%
- viability, T/C [26]: 78.4%
